The values below come from patent US20250059198A1, “BRM DEGRADING COMPOUNDS AND ASSOCIATED METHODS OF USE” (Arvinas Operations, Inc., priority 2021, published 2025).

The target in the experiment is T1, BRM (Homo sapiens, UniProt P51531).
T1 construct: Western Blot Screen of BRM Degradation in SW1573 Cells; endogenous in cells; host or cells: SW1573 cells
Kind of experiment: BRM degradation (Dmax and DC50) in SW1573 cells, Western blot screen / In-Cell Western screen. It counts as cell-based. The note with it: overnight (18-20 hours) treatment; for Dmax: read-out: Dmax (%)** (% degraded). The essentials:
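SW1573 cells were treated with compound for 18–20 h (final 0.1% DMSO). BRM was quantified either by Western blot of RIPA lysates or by fixed-cell In-Cell Western (LI-COR, 800/680 nm), each normalised to alpha-tubulin, giving Dmax and DC50.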
Background: Immunoblotting shows a protein as a band on a membrane.

T1 sequence (P51531 whole entry): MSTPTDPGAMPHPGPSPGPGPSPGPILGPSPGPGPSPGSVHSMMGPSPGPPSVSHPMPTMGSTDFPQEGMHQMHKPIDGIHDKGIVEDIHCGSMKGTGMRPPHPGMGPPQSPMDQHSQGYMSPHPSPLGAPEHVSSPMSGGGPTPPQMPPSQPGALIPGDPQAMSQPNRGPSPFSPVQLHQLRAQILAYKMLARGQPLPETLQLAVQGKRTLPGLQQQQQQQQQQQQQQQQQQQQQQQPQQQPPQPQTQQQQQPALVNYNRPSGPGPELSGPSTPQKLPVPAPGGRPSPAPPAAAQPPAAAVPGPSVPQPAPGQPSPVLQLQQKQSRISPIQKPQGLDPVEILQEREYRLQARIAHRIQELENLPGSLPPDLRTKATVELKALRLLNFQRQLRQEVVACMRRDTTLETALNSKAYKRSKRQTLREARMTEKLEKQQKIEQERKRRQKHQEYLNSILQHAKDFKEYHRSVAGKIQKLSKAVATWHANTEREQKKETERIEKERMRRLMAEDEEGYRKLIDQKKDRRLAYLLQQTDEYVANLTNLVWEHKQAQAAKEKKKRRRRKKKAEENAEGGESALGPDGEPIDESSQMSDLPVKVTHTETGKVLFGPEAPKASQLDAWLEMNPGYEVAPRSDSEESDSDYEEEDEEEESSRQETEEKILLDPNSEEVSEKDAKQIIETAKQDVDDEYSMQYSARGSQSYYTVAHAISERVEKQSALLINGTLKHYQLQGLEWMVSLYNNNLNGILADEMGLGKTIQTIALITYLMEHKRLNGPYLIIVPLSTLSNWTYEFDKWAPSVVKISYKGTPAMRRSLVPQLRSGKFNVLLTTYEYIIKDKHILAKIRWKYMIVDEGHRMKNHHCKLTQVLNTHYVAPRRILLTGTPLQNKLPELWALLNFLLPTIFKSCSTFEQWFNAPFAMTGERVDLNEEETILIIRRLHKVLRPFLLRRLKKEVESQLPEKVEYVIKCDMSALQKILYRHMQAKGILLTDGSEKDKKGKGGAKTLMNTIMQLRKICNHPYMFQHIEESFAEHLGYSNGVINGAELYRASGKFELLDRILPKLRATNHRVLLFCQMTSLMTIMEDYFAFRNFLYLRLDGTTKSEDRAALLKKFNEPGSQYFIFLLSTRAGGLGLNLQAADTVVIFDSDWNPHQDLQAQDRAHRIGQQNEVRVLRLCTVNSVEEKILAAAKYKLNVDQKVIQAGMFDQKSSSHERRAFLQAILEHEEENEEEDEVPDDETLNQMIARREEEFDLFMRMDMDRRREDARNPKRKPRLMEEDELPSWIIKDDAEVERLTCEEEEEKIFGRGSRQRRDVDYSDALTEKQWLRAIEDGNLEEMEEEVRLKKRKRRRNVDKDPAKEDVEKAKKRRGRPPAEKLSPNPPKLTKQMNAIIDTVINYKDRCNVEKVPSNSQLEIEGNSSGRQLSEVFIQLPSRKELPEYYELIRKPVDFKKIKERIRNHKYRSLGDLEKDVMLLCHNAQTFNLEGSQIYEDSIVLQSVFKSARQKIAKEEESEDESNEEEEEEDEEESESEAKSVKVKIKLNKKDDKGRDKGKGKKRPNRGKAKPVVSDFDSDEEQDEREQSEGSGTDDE

Consider `Cc1ncsc1-c1ccc([C@H](C)NC(=O)[C@@H]2C[C@@H](O)CN2C(=O)[C@@H](c2cc(N3CCC(CN4CCC5(CC4)CC(N4CCN(CC6(O)CCN(c7cc(-c8ccccc8O)nnc7N)CC6)CC4)C5)CC3)no2)C(C)C)cc1` [Compound 122, (2S,4R)-1-[(2R)-2-{3-[4-({2-[4-({1-[3-amino-6-(2-hydroxyphenyl)pyridazin-4-yl]-4-hydroxypiperidin-4-yl}methyl)piperazin-1-yl]-7-azaspiro[3.5]nonan-7-yl}methyl)piperidin-1-yl]-1,2-oxazol-5-yl}-3-methylbutanoyl]-4-hydroxy-N-[(1S)-1-[4-(4-methyl-1,3-thiazol-5-yl)phenyl]ethyl]pyrrolidine-2-carboxamide], for which the DC50 was less than 2.5 nM and the greatest degradation seen (Dmax) is greater than 75%.

For the molecule `Cc1ncsc1-c1ccc([C@H](C)NC(=O)[C@@H]2C[C@@H](O)CN2C(=O)[C@@H](c2cc(N3CCN(C(=O)N4CCC(O[C@H]5C[C@H](Oc6cc(N7C8CCC7CN(c7cc(-c9ccccc9O)nnc7N)C8)ccn6)C5)CC4)CC3)no2)C(C)C)cc1` [Compound 123, (2S,4R)-4-hydroxy-N-[(1S)-1-[4-(4-methyl-1,3-thiazol-5-yl)phenyl]ethyl]-1-[(2S)-3-methyl-2-[3-(4-{4-[(1r,3r)-3-[(4-{3-[3-amino-6-(2-hydroxyphenyl)pyridazin-4-yl]-3,8-diazabicyclo[3.2.1]octan-8-yl}pyridin-2-yl)oxy]cyclobutoxy]piperidine-1-carbonyl}piperazin-1-yl)-1,2-oxazol-5-yl]butanoyl]pyrrolidine-2-carboxamide], the DC50 was less than 2.5 nM and the Dmax was greater than 75%. For the molecule `Cc1ncsc1-c1ccc([C@H](C)NC(=O)[C@@H]2C[C@@H](O)CN2C(=O)[C@H](c2cc(N3CCN(C(=O)N4CCC(O[C@H]5C[C@H](Oc6cc(N7C8CCC7CN(c7cc(-c9ccccc9O)nnc7N)C8)ccn6)C5)CC4)CC3)no2)C(C)C)cc1` [Compound 124, (2S,4R)-4-hydroxy-N-[(1S)-1-[4-(4-methyl-1,3-thiazol-5-yl)phenyl]ethyl]-1-[(2R)-3-methyl-2-[3-(4-{4-[(1r,3r)-3-[(4-{3-[3-amino-6-(2-hydroxyphenyl)pyridazin-4-yl]-3,8-diazabicyclo[3.2.1]octan-8-yl}pyridin-2-yl)oxy]cyclobutoxy]piperidine-1-carbonyl}piperazin-1-yl)-1,2-oxazol-5-yl]butanoyl]pyrrolidine-2-carboxamide], the DC50 was no less than 30 nM. For `Cc1ncsc1-c1ccc([C@H](C)NC(=O)[C@@H]2C[C@@H](O)CN2C(=O)[C@@H](c2cc(N3CCC(CN4CCC5(CC4)CC(N4CCOC6(CN(CC7C8CCC7CN(c7cc(-c9ccccc9O)nnc7N)C8)C6)C4)C5)CC3)no2)C(C)C)cc1` (stereo partly drawn) [Compound 125, (2S,4R)-1-[(2R)-2-{3-[4-({2-[2-({3-[3-amino-6-(2-hydroxyphenyl)pyridazin-4-yl]-3-azabicyclo[3.2.1]octan-8-yl}methyl)-5-oxa-2,8-diazaspiro[3.5]nonan-8-yl]-7-azaspiro[3.5]nonan-7-yl}methyl)piperidin-1-yl]-1,2-oxazol-5-yl}-3-methylbutanoyl]-4-hydroxy-N-[(1S)-1-[4-(4-methyl-1,3-thiazol-5-yl)phenyl]ethyl]pyrrolidine-2-carboxamide], the DC50 is less than 2.5 nM and the greatest degradation seen (Dmax) was greater than 75%.

Turning to `Cc1ncsc1-c1ccc([C@H](C)NC(=O)[C@@H]2C[C@@H](O)CN2C(=O)[C@@H](c2cc(N3CCC(CN4CCC5(CC4)CC(N4CCOC6(CC(CN7C8CCC7CN(c7cc(-c9ccccc9O)nnc7N)C8)C6)C4)C5)CC3)no2)C(C)C)cc1` [Compound 126, (2S,4R)-1-[(2R)-2-{3-[4-({2-[2-({3-[3-amino-6-(2-hydroxyphenyl)pyridazin-4-yl]-3,8-diazabicyclo[3.2.1]octan-8-yl}methyl)-5-oxa-8-azaspiro[3.5]nonan-8-yl]-7-azaspiro[3.5]nonan-7-yl}methyl)piperidin-1-yl]-1,2-oxazol-5-yl}-3-methylbutanoyl]-4-hydroxy-N-[(1S)-1-[4-(4-methyl-1,3-thiazol-5-yl)phenyl]ethyl]pyrrolidine-2-carboxamide], the DC50 lay within 2.5 to 10 nM and the Dmax was greater than 75%.

The molecule `Cc1ncsc1-c1ccc([C@H](C)NC(=O)[C@@H]2C[C@@H](O)CN2C(=O)[C@@H](c2cc(OCCOC(=O)N3CCC(O[C@H]4C[C@H](Oc5cc(N6C7CCC6CN(c6cc(-c8ccccc8O)nnc6N)C7)ccn5)C4)CC3)no2)C(C)C)cc1` [Compound 127, 2-({5-[(2R)-1-[(2S,4R)-4-hydroxy-2-{[(1S)-1-[4-(4-methyl-1,3-thiazol-5-yl)phenyl]ethyl]carbamoyl}pyrrolidin-1-yl]-3-methyl-1-oxobutan-2-yl]-1,2-oxazol-3-yl}oxy)ethyl 4-[(1r,3r)-3-[(4-{3-[3-amino-6-(2-hydroxyphenyl)pyridazin-4-yl]-3,8-diazabicyclo[3.2.1]octan-8-yl}pyridin-2-yl)oxy]cyclobutoxy]piperidine-1-carboxylate] showed a DC50 of no less than 30 nM. For the molecule `Cc1ncsc1-c1ccc([C@H](C)NC(=O)[C@@H]2C[C@@H](O)CN2C(=O)[C@@H](c2cc(N3CCC(OC(=O)N4CCC(Oc5cc(N6C7CCC6CN(c6cc(-c8ccccc8O)nnc6N)C7)ccn5)CC4)CC3)no2)C(C)C)cc1` [Compound 128, 1-(5-((R)-1-((2S,4R)-4-hydroxy-2-(((S)-1-(4-(4-methylthiazol-5-yl)phenyl)ethyl)carbamoyl)pyrrolidin-1-yl)-3-methyl-1-oxobutan-2-yl)isoxazol-3-yl)piperidin-4-yl 4-((4-(3-(3-amino-6-(2-hydroxyphenyl)pyridazin-4-yl)-3,8-diazabicyclo[3.2.1]octan-8-yl)pyridin-2-yl)oxy)piperidine-1-carboxylate], the DC50 was less than 2.5 nM and the Dmax was greater than 75%. Take `Cc1ncsc1-c1ccc([C@H](C)NC(=O)[C@@H]2C[C@@H](O)CN2C(=O)[C@@H](c2cc(N3CCN(C(=O)N4CC(Oc5cc(N6C7CCC6CN(c6cc(-c8ccccc8O)nnc6N)C7)ccn5)C4)CC3)no2)C(C)C)cc1` [Compound 129, (2S,4R)-1-[(2R)-2-[3-(4-{3-[(4-{3-[3-amino-6-(2-hydroxyphenyl)pyridazin-4-yl]-3,8-diazabicyclo[3.2.1]octan-8-yl}pyridin-2-yl)oxy]azetidine-1-carbonyl}piperazin-1-yl)-1,2-oxazol-5-yl]-3-methylbutanoyl]-4-hydroxy-N-[(1S)-1-[4-(4-methyl-1,3-thiazol-5-yl)phenyl]ethyl]pyrrolidine-2-carboxamide]: the DC50 lay within 2.5 to 10 nM and the Dmax was greater than 75%. In the same order, the values of `Cc1ncsc1-c1ccc([C@H](C)NC(=O)[C@@H]2C[C@@H](O)CN2C(=O)[C@@H](c2cc(N3CCC(CN4CCC(O[C@H]5C[C@H](N6CCC(Cc7cn(-c8cc(-c9ccccc9O)nnc8N)cn7)CC6)C5)CC4)CC3)no2)C(C)C)cc1` [Compound 130, (2S,4R)-4-hydroxy-N-[(1S)-1-[4-(4-methyl-1,3-thiazol-5-yl)phenyl]ethyl]-1-[(2R)-3-methyl-2-{3-[4-({4-[(1r,3r)-3-[4-({1-[3-amino-6-(2-hydroxyphenyl)pyridazin-4-yl]-1H-imidazol-4-yl}methyl)piperidin-1-yl]cyclobutoxy]piperidin-1-yl}methyl)piperidin-1-yl]-1,2-oxazol-5-yl}butanoyl]pyrrolidine-2-carboxamide] are 10 to 30 nM and greater than 75%. In turn, `Cc1ncsc1-c1ccc([C@H](C)NC(=O)[C@@H]2C[C@@H](O)CN2C(=O)[C@H](c2cc(N3CCC(OC(=O)N4CCC(Oc5cc(N6C7CCC6CN(c6cc(-c8ccccc8O)nnc6N)C7)ccn5)CC4)CC3)no2)C(C)C)cc1` [Compound 131, 1-(5-((S)-1-((2S,4R)-4-hydroxy-2-(((S)-1-(4-(4-methylthiazol-5-yl)phenyl)ethyl)carbamoyl)pyrrolidin-1-yl)-3-methyl-1-oxobutan-2-yl)isoxazol-3-yl)piperidin-4-yl 4-((4-(3-(3-amino-6-(2-hydroxyphenyl)pyridazin-4-yl)-3,8-diazabicyclo[3.2.1]octan-8-yl)pyridin-2-yl)oxy)piperidine-1-carboxylate] came in with a DC50 of no less than 30 nM. As for `Cc1ncsc1-c1ccc([C@H](C)NC(=O)[C@@H]2C[C@@H](O)CN2C(=O)[C@@H](c2cc(N3CCC(CN4CCC5(CC4)CC(N4CCN(C)[C@H](CN6C7CCC6CN(c6cc(-c8ccccc8O)nnc6N)C7)C4)C5)CC3)no2)C(C)C)cc1` [Compound 132, (2S,4R)-1-[(2R)-2-{3-[4-({2-[(3S)-3-({3-[3-amino-6-(2-hydroxyphenyl)pyridazin-4-yl]-3,8-diazabicyclo[3.2.1]octan-8-yl}methyl)-4-methylpiperazin-1-yl]-7-azaspiro[3.5]nonan-7-yl}methyl)piperidin-1-yl]-1,2-oxazol-5-yl}-3-methylbutanoyl]-4-hydroxy-N-[(1S)-1-[4-(4-methyl-1,3-thiazol-5-yl)phenyl]ethyl]pyrrolidine-2-carboxamide], the DC50 is less than 2.5 nM and the Dmax is greater than 75%. In the same order, the values of `Cc1ncsc1-c1ccc([C@H](C)NC(=O)[C@@H]2C[C@@H](O)CN2C(=O)[C@@H](c2cc(N3CCC(CN4CCC5(CC4)CC(N4CCN(C)[C@@H](CN6C7CCC6CN(c6cc(-c8ccccc8O)nnc6N)C7)C4)C5)CC3)no2)C(C)C)cc1` [Compound 133, (2S,4R)-1-[(2R)-2-{3-[4-({2-[(3R)-3-({3-[3-amino-6-(2-hydroxyphenyl)pyridazin-4-yl]-3,8-diazabicyclo[3.2.1]octan-8-yl}methyl)-4-methylpiperazin-1-yl]-7-azaspiro[3.5]nonan-7-yl}methyl)piperidin-1-yl]-1,2-oxazol-5-yl}-3-methylbutanoyl]-4-hydroxy-N-[(1S)-1-[4-(4-methyl-1,3-thiazol-5-yl)phenyl]ethyl]pyrrolidine-2-carboxamide] are less than 2.5 nM and greater than 75%.

By DC50 is commonly meant the concentration giving 50% degradation. A high value points to a less potent degrader. Broadly, the Dmax is the greatest extent of degradation seen.
